We go through one compound from EPA's ToxValDB 9.5 (doi:10.2903/j.efsa.2018.5151).

The structures appear in SMILES notation. ≈ marks a conversion by molar mass, not a printed value.

For one series, the system named is Aphidius rhopalosiphi. The experiment in a line: LR50; higher = less toxic.
In a further series the test system is Folsomia candida. The note with it: chronic/long-term; duration: 28 days; reproduction.
For the next series, the system named is Anas platyrhynchos. The note with it: acute; oral; unspecified; mortality.
A further series deals with Colinus virginianus. The note with it: reproduction developmental.
Another series concerns Rattus norvegicus. The settings on record: acute; oral; mortality.
The next series deals with Apis mellifera. The note with it: acute, mortality.
In a further series the test system is Bibionidae. The settings on record: chronic/long-term; duration: 28 days.
In a further series the test system is Daphnia magna. The settings on record: chronic/long-term; duration: 21 days.

Broadly, the NOAEL is the highest tested level that showed no adverse finding. For orientation: LC50 means the concentration that kills 50% of the test population. With `COC(=O)Nc1cccc(OC(=O)Nc2cccc(C)c2)c1` [Phenmedipham], the LR50 with Aphidius rhopalosiphi (acute, mortality) is over 294 g/ha; with Aphidius rhopalosiphi (chronic/long-term, duration: 14 days, no effects), over 960 g/ha. Besides, the NOEC is 500 mg/kg with Folsomia candida; at least 6.86 mg/L with Bibionidae; 0.005 mg/L with Daphnia magna; 0.041 mg/L in the series on Oncorhynchus mykiss (chronic/long-term, duration: 92 days, growth). Further, the LD50 in the series on Anas platyrhynchos was over 2500 mg/kg-day; in the series on Rattus norvegicus, over 5000 mg/kg-day; in the series with Apis mellifera (dermal) it was over 100 µg/piece; in the series on Apis mellifera (oral, unspecified), over 105 µg/piece. This compound also gave an NOAEL with Colinus virginianus of 121 mg/kg-day. Besides, the LC50 in the series on Oncorhynchus mykiss (acute, duration: 96 hours, mortality) is 1.84 mg/L (≈ 6.13 µM).
